Source: US20030064434A1, “Novel G Protein-coupled receptor, GAVE1” (Aventis Pharmaceuticals, Inc., priority 2001, published 2003)

Columns and labels:
[1] = test system: GAVE1 expression in rat cardiac myocytes; experiment: Northern blot of GAVE1 RNA levels in cardiomyocytes exposed to phenylephrine; assay type: cell-based; details: rat cardiac myocytes stimulated 48 hours with 10^-5 M phenylephrine; compared to control (untreated) or vehicle-treated myocytes
Description: FIG. 7 is a computer representation of a Northern blot depicting GAVE1 RNA levels of cardiomyocytes expressing GAVE1 exposed to medium, vehicle and vehicle containing phenylephrine.
Northern blot analysis is performed on RNA derived from several human tissue samples to determine whether the tissues express the hGAVE1 receptor gene. The probe used is P^32-labeled hGAVE1 cDNA.
P32-labeled hGAVE1 cDNA is prepared as follows. Twenty-five ng hGAVE1 cDNA prepared as described above is resuspended to 45 μl of 10 mM Tris-HCl, pH 7.5; 1 mM EDTA in a microfuge tube and heated at 95° C. for 5 minutes. The tube then is chilled on ice for another 5 minutes. Following chilling, the mixture contained in the tube is resuspended with the 45 μl GAVE1 cDNA and buffer as described above and mixed with RTS Rad Prime Mix (supplied with the RTS Rad Prime DNA-labeling System) (Life Technologies, Catalog No. 10387-017). Five μl of P^32-labeled α-dCTP, specific activity: 3000 Ci/mM, (Amersham, AA0005) is added while mixing gently but thoroughly. The resulting mixture is incubated at 37° C. for 10 minutes. Incubation is stopped by the addition of 5 μl of 0.2 M EDTA, pH 8.0. Incorporation of the radioactive alpha-dCTP into the hGAVE1 cDNA is evaluated by taking a 5 μl aliquot of the mixture and counting the radioactivity. […]

[2] = test system: GAVE1 (Homo sapiens); experiment: FLIPR assay, change in fluorescence of GAVE1 expressing CHO cells; assay type: cell-based; details: CHO cells expressing GAVE1, increasing amounts of ligand; untransformed CHO cells show control level
Chain of GAVE1 (Homo sapiens) (P21453 whole entry): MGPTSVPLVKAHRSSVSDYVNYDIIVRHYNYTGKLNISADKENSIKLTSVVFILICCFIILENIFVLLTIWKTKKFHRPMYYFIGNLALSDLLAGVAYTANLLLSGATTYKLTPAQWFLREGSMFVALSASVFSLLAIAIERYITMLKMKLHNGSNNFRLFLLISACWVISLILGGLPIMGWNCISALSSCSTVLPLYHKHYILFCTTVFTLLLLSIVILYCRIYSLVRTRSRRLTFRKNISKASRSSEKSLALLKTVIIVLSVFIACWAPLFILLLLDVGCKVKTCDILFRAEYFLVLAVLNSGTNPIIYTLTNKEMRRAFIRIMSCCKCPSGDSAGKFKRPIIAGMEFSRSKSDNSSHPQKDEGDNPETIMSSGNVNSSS
Description: To screen for agonists of human GAVE1, hGAVE1 is artificially coupled to a Gq signaling package. Activation of the Gq mechanism stimulates the release of Ca^2+ from sarcoplasmic reticulum vesicles within the cell. The Ca^2+ is released into the cytoplasm where it can be detected using Ca^2+ chelating dyes. A Fluorometric Imaging Plate Reader or FLIPR® apparatus (Molecular Devices) is used to monitor any resulting changes in fluorescence. The activity of an agonist is reflected by an increase in fluorescence.
CHO-K1 cells expressing hGAVE1 are pre-engineered to express an indiscriminate form of Gq protein (Gα16). […]
A compound library containing possible agonists will be tested at 10 μM concentration in physiological salt buffer. Changes in fluorescence are measured for 10 seconds prior to compound addition. After the addition of the compound, fluorescence is measured every second for the first minute followed by exposures taken every six seconds for a total experimental analysis time of three minutes. […] The maximum fluorescence changes for the first 80 scans is recorded as a measure of agonist activity and compared to the maximum fluorescence change induced by 10 μM ATP (Sigma A9062).

SMILES: CNC[C@H](O)c1cccc(O)c1 [phenylephrine]
- level of GAVE1 expression [1]: up-regulated several-fold

SMILES: CCCCCCCCCCCCC/C=C/[C@@H](O)[C@@H](N)COP(=O)(O)O [S1P, sphingosine-1-phosphate]
- change in fluorescence (GAVE1 activity) [2]: positive correlation of activity with increasing amounts of ligand
